Experimental findings from patent US20250340939A1 (priority 2021, published 2025) are described below.

Entries after “also recorded” stand apart in the source; their conditions may differ. Where two headings read alike, the source gives them in different places.

Assay type in all cases: binding
The test system of data set [1] is 16S rRNA (E. coli). The data set can be described thus: MST of Cy5 probes hybridized with total bacterial RNA. The conditions noted are these: 100 μM Dox, red mode. As for the experimental part:
For bacterial RNA extraction, DH5α E. coli cells transfected with pcDNA3.1+ plasmid were grown overnight in LB medium containing 100 μg/ml ampicillin. The concentration of bacterial cells was determined according to OD at 600 nm, and ˜7·10^8 cells were taken for RNA extraction. 1 volume of bacterial culture was mixed with 2 volumes of RNAprotect® Bacteria Reagent (QIAGEN), vortexed for 5 seconds and incubated for 5 minutes at room temperature. The sample was then centrifuged for 10 minutes at 5,000×g at room temperature. After discarding supernatant, the pellet was resuspended in 100 μl TE buffer (10 mM Tris-HCl, 1 mM EDTA, pH 8) containing 1 mg/ml lysozyme. The samples were vortexed for 5 seconds, and then incubated at room temperature for 10 minutes with vortexing every 2 minutes. 1 ml TRIzol™ reagent was added to the sample. The sample was incubated at room temperature for 5 minutes, and then RNA extraction was performed as described hereinabove.
(§1) RNA was extracted from a sample, and after extraction, the RNA pellet was solubilized and hybridized with a specific fluorescently labeled DNA probe in a hybridization solution (as schematically depicted in FIG. 1). After hybridization, the hybridized sample was loaded into an MST capillary and inserted into a Monolith™ MST instrument (NanoTemper Technologies GmbH, Germany). This instrument included a blue mode (493 nm excitation, […]) and red mode ([…], 670 nm emission) for detection, and an I.R laser (1475 nm+/−15 nm) for heating. The intensities for both fluorescence detection (LED) and IR laser are adjustable, in a range of 0%-100%, wherein the temperature gradient generated has a temperature difference of up to about 2-8° C. Thermophoretic force was induced by infrared laser after 1 second, and maintained for 2 seconds, for a total of a 3 second measurement window (measurement time may optionally be further reduced to 2 seconds using current available MST instruments).
For RNA titration measurements, the extracted RNA solution was diluted to X2 and a serial dilution was prepared in water. Hybridization solutions were prepared as described herein, were X1 solution consisted of SSC buffer X1, 0.05% TWEEN™ 20 surfactant, and 1% formamide unless indicated otherwise. Fluorescently labeled probes were diluted from a 100 μM stock to 1:2400 in hybridization solution X2, denatured for 5 minutes at 100° C. and then incubated on ice for 5 minutes. If a mixture of uniformly labeled probes was prepared, the probes were diluted to a 1:1200 dilution in water and then diluted to 1:2400 with hybridization solution X4 (1:1/number of probes) to create equal molarity of the fluorescent dye. The probe solution was combined with the titration series in a 1:1 (v/v) ratio (10 μL total volume) and allowed to hybridize at a defined temperature for a given time as described. If post-hybridization with intercalating agents (ICA), doxorubicin or Midori™ Green, was performed, the samples were combined with ICA X5 solution 4:1 (v:v) ratio, 8 μL and 2 μL respectively. For cell based measurements, after extraction, the RNA pellet was solubilized and hybridized with a specific fluorescently labeled DNA probe in a hybridization solution (as schematically depicted in FIG. 1).
In order to determine the optimal hybridization temperature, one of the designed probes (16S1^Cy5) was incubated with increasing concentrations of bacterial RNA at different temperatures for 10 minutes. MST measurements were then performed using the red wavelength acquisition mode.
In order to assess the effect of human RNA presence and Dox post-hybridization on signal response, 16S1^Cy5 was incubated with increasing concentrations of bacterial or human total RNA at 71° C. for 2 hours. Equal amounts were then taken for post-hybridization incubation with Dox or hybridization buffer as a control. […]

Data set [2] deals with 18S rRNA (human). Put plainly: MST of probe hybridized with human RNA extracted from HEK 293T cells.
From the text: as §1
For RNA titration measurements, the extracted RNA solution was diluted to X2 and a serial dilution was prepared in water. Hybridization solutions were prepared as described herein, were X1 solution consisted of SSC buffer X1, 0.05% TWEEN™ 20 surfactant, and 1% formamide unless indicated otherwise. Fluorescently labeled probes were diluted from a 100 μM stock to 1:2400 in hybridization solution X2, denatured for 5 minutes at 100° C. and then incubated on ice for 5 minutes. […]
As depicted in FIG. 3, fluorescent signals were quantified in the 1 second before application of a temperature gradient (Fcold) and between 1 and 2 seconds after application of the temperature gradient (Fhot). […]
As the probes are tagged with different florescent dyes, 18S^ATTO488 can be used as a control for the RNA extraction process. […] The signals of 18S^ATTO488 were measured using a blue wavelength acquisition mode and S^Cy5 using a red wavelength acquisition mode. […]

Data set [3] relates to HA gene (H1N1 influenza).
Data set [4] deals with S-gene RNA (SARS-CoV2). As to conditions: for direction of thermophoretic flux / dependence of thermophoretic signal on S-gene RNA concentration: in the presence of 100 μM Dox; for direction of thermophoretic flux: increasing S-gene; for ΔFnorm (signal response): FIG. 37; for dependence of thermophoretic/fluorescent signal on S-gene RNA concentration: no intercalating agent, red wavelength acquisition mode.

Data set [5] has as its system S-HA gene. Put plainly: MST of probes with artificial S-HA gene RNA (target length effect).
Data set [6] concerns control RNA. The data set can be described thus: MST of probes incubated with control RNA (specificity). The conditions noted are these: in the presence of 100 μM Dox; red mode.

Regarding “16S2^Cy5: Cy5-labeled 44 nucleotide DNA probe (SEQ ID NO: 10) complementary to E. coli 16S rRNA (DNA GCGGCCGTACTCCCCAGGCGGTCGACTTAACGCGTTAGCTCCGG; DNA, backbone not given here; Cy5 dye label)”, the “direction of thermophoretic migration (MST curves)” value in data set [1] is “migrated towards the heating zone both in the presence of bacterial RNA”.
The same measure, in the same setting: to “16S4^Cy5: Cy5-labeled 36 nucleotide DNA probe (SEQ ID NO: 12) complementary to E. coli 16S rRNA (DNA GGCAGTCTCCTTTGAGTTCCCGGCCGGACCGCTGGC; DNA, backbone not given here; Cy5 dye label)” belongs “A similar effect was observed”.
As for “16S7^Cy5: Cy5-labeled 45 nucleotide DNA probe (SEQ ID NO: 15) complementary to E. coli 16S rRNA (DNA CCCCCTCCATCAGGCAGTTTCCCAGACATTACTCACCCGTCCGCC; DNA, backbone not given here; Cy5 dye label)”, in data set [1], the “direction of thermophoretic migration (MST curves)” value was “migrated towards the heating zone in the presence of increasing concentrations of bacterial RNA, but away from the heating zone in the absence of bacterial RNA”. The “sensitivity to target RNA concentration (linear regression slope)” value in data set [1] (single probes, 10 minutes hybridization) is given as “significantly more sensitive to target RNA concentration than the other tested probes”.
“18S^ATTO488: probe with SEQ ID NO: 6 tagged with blue fluorescent dye ATTO 488, targets human 18S rRNA (DNA AGGGGCTGACCGGGTTGGTTTTGATCTGATAAATGCACGCATCCCC; ATTO 488 label; misc_feature 1..46 ATTO488 labeled; DNA sequence complementary to nucleotides 205-250 of SEQ ID NO: 5)”: the “selectivity of signal response to target RNA” value in data set [2] (100 ng/μl HEK 293T RNA vs 400 ng/μl S-gene, 400 ng/μl control RNA or no RNA, blue mode) was “selective signal responses to their target RNA”. In data set [2] (RNA extracted from HEK 293T cells, blue mode), the “dependence of fluorescent signal on complementary RNA dose” value is “dependent on the dose of complementary RNA”. The “concomitant detection of 18S rRNA in human extracted RNA” value in data set [2] (mixed with S^Cy5, hybridization at 42° C. for 30 minutes) was “effective and quantitative”.
On to “HA^ATTO488: DNA having SEQ ID NO: 8 tagged with blue fluorescent dye ATTO 488, targets H1N1 HA-gene (DNA TGAAGCCGGCAATGGCCCCGAATAGGCCTCTAG; ATTO 488 label; misc_feature 1..33 DNA sequence complementary to nucleotides 567-599 of SEQ ID NO: 7 (nucleotides 1048-1080 of Influenza A H1N1 HA gene; ATTO488 labeled)”, for which the “effect of higher saline sodium citrate buffer concentration on detection sensitivity” value in data set [3] (SSC X1, X2, X4, blue mode) is “increased detection sensitivity”. The “dependence of signal on HA-gene concentration” value in data set [3] (blue mode) is listed as “dose-dependent signal; also recorded: dependent on the concentration of HA-gene”. The “dependence of signal on S-gene concentration (off-target)” value in data set [4] (SSC X1, 10% (v/v) formamide, blue mode) was “not on the concentration of S-gene or control RNA”.
For “SE^Cy5: Cy5-tagged 22 nucleotide DNA probe (SEQ ID NO: 3) designed to bind at the edge of the S-gene (DNA CAATATCACCAAGGCAATCACC; DNA, backbone not given here; Cy5 dye label)”, the “maximum signal response, S-gene vs S-HA gene” value in data set [5] (red mode, FIG. 55) is given as “considerably stronger in the presence of S-gene than in the presence of S-HA”. In addition, the “direction of thermophoretic flux” value in data set [4] (red mode) is “directed away from the heating zone”. Further, the “ΔFnorm (signal response)” value in data set [4] (no Dox) was 54.41 ‰. Also, the “dependence of thermophoretic/fluorescent signal on S-gene RNA concentration” value in data set [4] is given as “exhibited a thermophoretic signal dependent on S-gene RNA concentration”.
As to “SN^Cy5: Cy5-tagged 22 nucleotide "non-binding" DNA probe (SEQ ID NO: 4), negative control (DNA CACCATTAGTGGGTTGGAAACC; DNA, backbone not given here; Cy5 dye label)”, in data set [4] (red mode), the “dependence of thermophoretic signal on S-gene RNA concentration” value is “not affected by RNA concentration”. Moreover, the “dependence of thermophoretic/fluorescent signal on S-gene RNA concentration” value in data set [4] is recorded as “exhibits no change in MST signal; also recorded: no dependence; also recorded: did not generated dose-dependent signals”.
Take “S^Cy5: 33 base DNA (SEQ ID NO: 2) tagged with red dye Cy5, binds the middle of SARS-CoV2 S-gene RNA (DNA GGATTGACTAGCTACACTACGTGCCCGCCGAGG; DNA, backbone not given here; Cy5 dye label)”: the “sensitivity (slope at low RNA levels), S-HA-gene vs S-gene” value in data set [5] was “considerably greater sensitivity than towards S-gene”. For the same substance, in data set [5] (red mode, FIG. 55), the “affinity towards S-HA gene compared with S-gene” value was “higher affinity towards S-HA gene than to S-gene” and the “maximum signal response, S-gene vs S-HA gene” value is given as “did not differ”. Also, the “signal response to HA-gene (off-target)” value in data set [3] (red mode, data not shown) is “no response in signal was observed”. Moreover, the “effect of control RNA on probe signal” value in data set [6] is listed as “no effect”. In addition, in data set [4], the “average maximum ΔFnorm” value was 547.1 ‰, the “selectivity of signal response to target RNA” value is reported as “selective signal responses to their target RNA” and the “dependence of thermophoretic/fluorescent signal on S-gene RNA concentration” value was “dependent on the dose of complementary RNA; also recorded: exhibited a thermophoretic signal dependent on S-gene RNA concentration”. Besides, in data set [4] (red mode), the “direction of thermophoretic flux” value is given as “towards the heating zone” and the “dependence of thermophoretic signal on S-gene RNA concentration” value is on record as “altered by S-gene RNA in a dose-dependent manner”. Further, in data set [4] (maximum signal response with S-gene compared to no RNA control), the “Z′-factor” value is listed as 0.85. Also, the “concomitant detection of S-gene in presence of human extracted RNA” value in data set [4] (mixed with 18S^ATTO488, hybridization at 42° C. for 30 minutes) is “effective and quantitative”. For the same substance, the “ΔFnorm (signal response)” value in data set [4] (no Dox) was 110.63 ‰. Moreover, the “average maximum ΔFnorm” value in data set [4] (no Dox, red mode) was 116.5 ‰.
